# Assay results from patent US11518760B2 (Liverpool School of Tropical Medicine, priority 2017, dated 2022).
# pEC50: −log10 of the molar value.
# System: C6/36 Aedes albopictus cell line infected with Wolbachia pipientis (Wolbachia strain wAlbB)
# Test: In vitro insect cell line assay (anti-Wolbachia screen, SYTO 11 high content imaging)
# Type: cell-based
# Settings: 168 h; C6/36 Aedes albopictus cells infected with Wolbachia pipientis wAlbB, 7 days incubation, SYTO 11 imaging; read-out: In vitro anti-Wolbachia activity
# Protocol: A C6/36 Aedes albopictus cell line infected with Wolbachia pipientis (Wolbachia strain wAlbB) derived from Aa23 A. albopictus cell line (O'Neill et al., 1997; Insect Mol Biol; Turner et al., (2006) J. Immunol. 7:1240-1249) was used to screen compounds. Cells were cultured in Leibovitz's L15+L-glutamine supplemented with heat-inactivated Foetal Calf Serum (HI-FCS), non-essential amino acids and tryptose phosphate broth. Culture medium was filter-sterilized through a 0.2 μm filter and stored at 4° C. Compounds were provided as 10 mM stocks in DMSO, diluted to 50 μM working stock to give final concentration of 5 μM on the test plate. Concentrated stocks were frozen at −20° C.
# Prior to use in the screening assay, cell cultures were sub-passaged (6 days prior) to provide ˜90% confluent cells on Day 0 of screening assay. On Day 0 (assay set-up), the medium was removed from the stock culture flask and replaced with fresh medium. The cells were detached by scraping and cell density was calculated using an automated cell counter. The cells were then diluted at working density and aliquoted at 90 μl to each well of a Cell Carrier 384 well plate (Perkin Elmer). Cell plates were incubated at 26° C.
# Control solution (DMSO-medium) was dispensed at 10 μl per well for “untreated” wells. Test solution (Drug-DMSO) was also dispensed at 10 μl (from working plate) per well for “treated” wells. The plates were incubated at 26° C., inside plastic wallet in incubator, for 7 days.
# On Day 7, 25 μl of staining medium/dye (SYTO 11, Life Technologies) was added to each sample well and allowed to stain for 15 minutes in the dark. All the medium was removed from each sample well without disturbing the cells and replaced with 100 μl of fresh medium. Plates were imaged on the Operetta High Content Imaging system (Perkin Elmer) and analyzed using texture analysis through Harmony software (Perkin Elmer). The cell-based screen and analysis are described in detail in Clare et al. (2014) J Biomol Screen.
row,SMILES,pEC50
1,"O=C1CCCN1CCCNc1ncnc2ccsc12 [Example 34, 1-(3-(thieno[3,2-d]pyrimidin-4-ylamino)propyl)pyrrolidin-2-one]",4.00 to 6.00
2,"O=C(Nc1ncnc2ccsc12)c1ccccc1Cl [Example 40, 2-chloro-N-(thieno[3,2-d]pyrimidin-4-yl)benzamide]",4.00 to 6.00
3,"COc1ccccc1CNc1nc(NCCCN2CCCC2=O)c2sccc2n1 [Example 35, 1-(3-((2-((2-methoxybenzyl)amino)thieno[3,2-d]pyrimidin-4-yl)amino)propyl)pyrrolidin-2-one]",6.00 to 7.00
4,"FC1CN(c2nc(NCc3cccnc3C(F)(F)F)c3cccnc3n2)C1 [Example 200, 2-(3-fluoroazetidin-1-yl)-N-((2-(trifluoromethyl)pyridin-3-yl)methyl)pyrido[2,3-d]pyrimidin-4-amine]",7.00 to 8.00
5,"CS(=O)(=O)C1CCN(c2nc(NCc3ccccc3C(F)(F)F)c3cccnc3n2)CC1 [Example 243, 2-(4-(methylsulfonyl)piperidin-1-yl)-N-(2-(trifluoromethyl)benzyl)pyrido[2,3-d]pyrimidin-4-amine]",6.00 to 7.00
6,"Cc1nc(N(C)Cc2ccccc2C(F)(F)F)c2sccc2n1 [Example 63, N,2-dimethyl-N-(2-(trifluoromethyl)benzyl)thieno[3,2-d]pyrimidin-4-amine]",7.00 to 8.00
7,"CC(c1ccccc1C(F)(F)F)N(C)c1nc(C#N)nc2ccsc12 (stereo not shown) [Example 74, 4-(methyl(1-(2-(trifluoromethyl)phenyl)ethyl)amino)thieno[3,2-d]pyrimidine-2-carbonitrile]",4.00 to 6.00
8,CC1COCCN1Cc1nc(NCc2ccccc2C(F)(F)F)c2cccnc2n1 (stereo not shown) [Example 224],4.00 to 6.00
9,"CC(C)Nc1nc(NCc2ccccc2Cl)c2sccc2n1 [Example 17, N^4-(2-chlorobenzyl)-N^2-isopropylthieno[3,2-d]pyrimidine-2,4-diamine]",7.00 to 8.00
10,"COc1ccccc1CNc1nc(NC(C)C)nc2ccccc12 [Example 139, N^2-isopropyl-N^4-(2-methoxybenzyl)quinazoline-2,4-diamine]",6.00 to 7.00
11,"CC1(C)CN(c2nc(NCc3cccnc3C(F)(F)F)c3cccnc3n2)CCO1 [Example 239, 2-(2,2-dimethylmorpholino)-N-((2-(trifluororoethyl)pyridin-3-yl)methyl)pyrido[2,3-d]pyrimidin-4-amine]",9.00 to 11.00
12,"CC(C)Nc1nc(NCc2ccc(C(F)(F)F)cc2)c2cccnc2n1 [Example 129, N^2-isopropyl-N^4-(4-(trifluoromethyl)benzyl)pyrido[2,3-d]pyrimidine-2,4-diamine]",6.00 to 7.00
13,"C[C@@H]1COCCN1c1nc(N2CCC2c2cccnc2C(F)(F)F)c2cccnc2n1 (stereo partly drawn) [Example 288, (3R)-3-methyl-4-(4-(2-(2-(trifluoromethyl)pyridin-3-yl)azetidin-1-yl)pyrido[2,3-d]pyrimidin-2-yl)morpholine]",8.00 to 9.00
14,"CCNC(=O)Nc1nc(NCc2cccnc2C(F)(F)F)c2cccnc2n1 [Example 207, 1-ethyl-3-(4-(((2-(trifluoromethyl)pyridin-3-yl)methyl)amino)pyrido[2,3-d]pyrimidin-2-yl)urea]",6.00 to 7.00
15,"CC(C)Nc1nc(N2CCCCC2c2ccccc2C(F)(F)F)c2cccnc2n1 (stereo not shown) [Example 185, N-isopropyl-4-(2-(2-(trifluoromethyl)phenyl)piperidin-1-yl)pyrido[2,3-d]pyrimidin-2-amine]",4.00 to 6.00
16,"FC(F)(F)c1ncccc1CNc1ncnc2ccsc12 [Example 103, N-((2-(trifluoromethyl)pyridin-3-yl)methyl)thieno[3,2-d]pyrimidin-4-amine]",7.00 to 8.00
17,FC(F)(F)c1ccc(CNc2nc(Cl)nc3ccccc23)cn1 [Example 115],4.00 to 6.00
18,"Clc1nc(NCc2ccccc2Cl)c2sccc2n1 [Example 21, 2-chloro-N-(2-chlorobenzyl)thieno[3,2-d]pyrimidin-4-amine]",7.00 to 8.00
19,N#Cc1nc(NCc2ccccc2C(F)(F)F)c2sccc2n1 [Example 80],7.00 to 8.00
20,"CC(C)Nc1nc(NCc2cccnc2C(F)(F)F)c2ncccc2n1 [Example 152, N^2-isopropyl-N^4-((2-(trifluoromethyl)pyridin-3-yl)methyl)pyrido[3,2-d]pyrimidine-2,4-diamine]",6.00 to 7.00

row,SMILES,pEC50
1,"Cc1ccc(Nc2nc(NC(C)C)nc3ccsc23)c(C)c1 [Example 32, N^4-(2,4-dimethylphenyl)-N^2-isopropylthieno[3,2-d]pyrimidine-2,4-diamine]",4.00 to 6.00
2,"N#Cc1ccccc1CNc1nc(Cl)nc2ccsc12 [Example 104, 2-(((2-chlorothieno[3,2-d]pyrimidin-4-yl)amino)methyl)benzonitrile]",6.00 to 7.00
3,"CC1(C#N)CCN(c2nc(NCc3ccccc3C(F)(F)F)c3cccnc3n2)CC1 [Example 261, (2-(trifluoromethyl)pyridin-3-yl)metha 4-methyl-1-(4-((2-(trifluoromethyl)benzyl)amino)pyrido[2,3-d]pyrimidin-2-yl)piperidine-4-carbonitrile]",> 11.00
4,"CC(Nc1ncnc2cc(C#N)sc12)c1ccccc1C(F)(F)F (stereo not shown) [Example 102, 4-((1-(2-(trifluoromethyl)phenyl)ethyl)amino)thieno[3,2-d]pyrimidine-6-carbonitrile]",4.00 to 6.00
5,"COc1ccc2c(NCc3cccnc3C(F)(F)F)nc(N3CCOCC3C)nc2n1 (stereo not shown) [Example 305, 7-methoxy-2-(3-methylmorpholino)-N-((2-(trifluoromethyl)pyridin-3-yl)methyl)pyrido[2,3-d]pyrimidin-4-amine]",4.00 to 6.00
6,"Oc1nc(NCc2cccnc2C(F)(F)F)c2cccnc2n1 [Example 182, 4-(((2-(trifluoromethyl)pyridin-3-yl)methyl)amino)pyrido[2,3-d]pyrimldin-2-ol]",4.00 to 6.00
7,"FC(F)(F)c1ncccc1CNc1nc(N2CCCCC23CC3)nc2ncccc12 [Example 296, 2-(4-azaspiro[2.5]octan-4-yl)-N-((2-(trifluoromethyl)pyridin-3-yl)methyl)pyrido[2,3-d]pyrimidin-4-amine]",> 11.00
8,"FC(F)(F)c1ncccc1CNc1nc(N2CCC2)nc2ncccc12 [Example 163, 2-(azetidin-1-yl)-N-((2-(trifluoromethyl)pyridin-3-yl)methyl)pyrido[2,3-d]pyrimidin-4-amine]",7.00 to 8.00
9,"CN1CC(Nc2nc(NCc3ccccc3C(F)(F)F)c3cccnc3n2)C1 [Example 142, N^2-(1-methylazetidin-3-yl)-N^4-(2-(trifluoromethyl)benzyl)pyrido[2,3-d]pyrimidine-2,4-diamine]",4.00 to 6.00
10,"CC(C)N(C)c1nc(NCc2ccccc2Cl)c2sccc2n1 [Example 33, N^4-(2-chlorobenzyl)-N^2-isopropyl-N^2-methylthieno[3,2-d]pyrimidine-2,4-diamine]",6.00 to 7.00
11,"CNCc1nc(NCc2ccccc2C(F)(F)F)c2cccnc2n1 [Example 145, 2-((methylamino)methyl)-N-(2-(trifluoromethyl)benzyl)pyrido[2,3-d]pyrimidin-4-amine]",4.00 to 6.00
12,"CC(C)C1COCCN1c1nc(NCc2cccnc2C(F)(F)F)c2cccnc2n1 (stereo not shown) [Example 269, 2-(3-isopropylmorpholino)-N-((2-(trifluoromethyl)pyridin-3-yl)methyl)pyrido[2,3-d]pyrimidin-4-amine]",8.00 to 9.00
13,"Cc1nc(NCc2cccnc2C(F)(F)F)c2cccnc2n1 [Example 177, 2-methyl-N-((2-(trifluoromethyl)pyridin-3-yl)methyl)pyrido[2,3-d]pyrimidin-4-amine]",4.00 to 6.00
14,CC(C)(O)c1nc(NCc2ccccc2C(F)(F)F)c2sccc2n1 [Example 86],4.00 to 6.00
15,"CN(Cc1ccccc1)c1nc(NCCCN2CCCC2=O)c2sccc2n1 [Example 36, 1-(3-((2-(benzyl(methyl)amino)thieno[3,2-d]pyrimidin-4-yl)amino)propyl)pyrrolidin-2-one]",4.00 to 6.00
16,"FC(F)(F)c1ccccc1CNc1nc(Cl)nc2ccsc12 [Example 46, 2-chloro-N-(2-(trifluoromethyl)benzyl)thieno[3,2-d]pyrimidin-4-amine]",7.00 to 8.00
17,"FC1(F)CCN(Cc2nc(NCc3cccnc3C(F)(F)F)c3cccnc3n2)C1 [Example 230, 2-((3,3-difluoropyrrolidin-1-yl)methyl)-N-((2-(trifluoromethyl)pyridin-3-yl)methyl)pyrido[2,3-d]pyrimidin-4-amine]",4.00 to 6.00
18,"CC(C)N(C)c1nc(NCc2cccnc2C(F)(F)F)c2cccnc2n1 [Example 162, N^2-isopropyl-N^2-methyl-N^4-((2-(trifluoromethyl)pyridin-3-yl)methyl)pyrido[2,3-d]pyrimidine-2,4-diamine]",9.00 to 11.00
19,FC1(F)CCN(Cc2nc(NCc3ccccc3C(F)(F)F)c3cccnc3n2)CC1 [Example 223],6.00 to 7.00
20,"FC(F)(F)c1ccccc1CNc1nc(N2CCOCC23CCCC3)nc2ncccc12 [Example 286, 2-(9-oxa-6-azaspiro[4.5]decan-6-yl)-N-(2-(trifluoromethyl)benzyl)pyrido[2,3-d]pyrimidin-4-amine]",6.00 to 7.00
